# Source: ChEMBL document CHEMBL1145461 (J Med Chem, 2007)
# Assays:
# Aromatase = target: T1, Aromatase (Homo sapiens, UniProt P11511); assay: Inhibition of CYP19 in human placental microsomes; design: species or system Placenta
# T1 sequence (P11511 whole entry): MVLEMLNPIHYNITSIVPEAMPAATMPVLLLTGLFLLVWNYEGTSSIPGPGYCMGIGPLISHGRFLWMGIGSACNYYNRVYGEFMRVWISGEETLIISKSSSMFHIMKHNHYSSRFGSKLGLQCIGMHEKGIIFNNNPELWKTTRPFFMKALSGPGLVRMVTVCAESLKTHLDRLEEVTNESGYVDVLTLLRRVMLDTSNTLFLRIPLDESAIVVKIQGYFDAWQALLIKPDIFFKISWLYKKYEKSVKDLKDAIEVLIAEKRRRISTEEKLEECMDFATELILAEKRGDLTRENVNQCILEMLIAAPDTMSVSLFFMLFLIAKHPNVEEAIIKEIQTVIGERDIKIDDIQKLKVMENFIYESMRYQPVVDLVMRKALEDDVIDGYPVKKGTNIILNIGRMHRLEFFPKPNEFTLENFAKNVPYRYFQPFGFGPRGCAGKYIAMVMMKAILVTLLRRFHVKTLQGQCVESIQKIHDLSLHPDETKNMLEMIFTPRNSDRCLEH
# [1] = target: T2, Steroid 17-alpha-hydroxylase/17,20 lyase (Homo sapiens, UniProt P05093); assay: (§1) Inhibition of human CYP17 expressed in Escherichia coli at 2.5 uM; settings: 2.5 µM
# T2 sequence (P05093 whole entry): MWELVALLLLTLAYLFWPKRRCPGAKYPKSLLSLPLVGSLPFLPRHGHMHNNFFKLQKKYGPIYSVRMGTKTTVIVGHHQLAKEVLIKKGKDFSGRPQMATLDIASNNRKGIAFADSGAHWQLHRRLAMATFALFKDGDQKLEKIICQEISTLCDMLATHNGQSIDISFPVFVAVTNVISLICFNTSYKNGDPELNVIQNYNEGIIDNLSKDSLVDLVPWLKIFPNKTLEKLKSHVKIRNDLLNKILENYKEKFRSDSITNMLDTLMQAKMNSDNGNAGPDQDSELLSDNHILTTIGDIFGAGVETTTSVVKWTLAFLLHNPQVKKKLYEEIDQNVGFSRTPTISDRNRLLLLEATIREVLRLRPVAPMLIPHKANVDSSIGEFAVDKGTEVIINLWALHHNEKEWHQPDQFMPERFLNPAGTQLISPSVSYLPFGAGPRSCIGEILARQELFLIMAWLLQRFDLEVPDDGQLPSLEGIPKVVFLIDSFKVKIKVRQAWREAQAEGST
# [2] = target: T3, CYP17 (steroid 17-alpha-hydroxylase/17,20 lyase) (Homo sapiens, UniProt P05093); assay: as §1; settings: recombinant human CYP17 expressed in Escherichia coli
# T3 sequence (P05093 whole entry): T2 sequence (P05093 whole entry)
IC50 (Aromatase) [nM],Inhibition [1],inhibition at 2.5 µM [2] [%],Compound
7.3,Not Active,,O=C(c1ccccc1)c1cccc(Cn2ccnc2)c1
560,Not Active,,O=C(c1ccccc1)c1ccccc1Cn1ccnc1
,Not Active,,N#Cc1ccc(C2CCCc3cncn32)cc1 (stereo not drawn) [FADROZOLE]
25.9,Not Active,,O=C(c1ccccc1)c1cc([N+](=O)[O-])ccc1Cn1ccnc1
,Not Active,,O=C(c1ccccc1)c1ccc(Cn2ccnc2)cc1
31,Not Active,,O=C(c1ccccc1)c1cc(Cn2ccnc2)ccc1[N+](=O)[O-]
260,,24,O=C(c1ccc(-c2ccccc2)cc1)c1ccccc1Cn1ccnc1
17.7,,17,O=C(c1ccc(-c2ccccc2)cc1)c1cc([N+](=O)[O-])ccc1Cn1ccnc1
400,,15,O=C(c1ccccc1)c1cc(Br)ccc1Cn1ccnc1
5.3,Not Active,,O=C(c1ccc(-c2ccccc2)cc1)c1cccc(Cn2ccnc2)c1
